One assay concerns the target T1, AhR (Homo sapiens, UniProt P35869).
T1 construct: host or cells: CaC-2 intestinal cells; yeast; a liver cancer cell line
T1 sequence (P35869 11-848): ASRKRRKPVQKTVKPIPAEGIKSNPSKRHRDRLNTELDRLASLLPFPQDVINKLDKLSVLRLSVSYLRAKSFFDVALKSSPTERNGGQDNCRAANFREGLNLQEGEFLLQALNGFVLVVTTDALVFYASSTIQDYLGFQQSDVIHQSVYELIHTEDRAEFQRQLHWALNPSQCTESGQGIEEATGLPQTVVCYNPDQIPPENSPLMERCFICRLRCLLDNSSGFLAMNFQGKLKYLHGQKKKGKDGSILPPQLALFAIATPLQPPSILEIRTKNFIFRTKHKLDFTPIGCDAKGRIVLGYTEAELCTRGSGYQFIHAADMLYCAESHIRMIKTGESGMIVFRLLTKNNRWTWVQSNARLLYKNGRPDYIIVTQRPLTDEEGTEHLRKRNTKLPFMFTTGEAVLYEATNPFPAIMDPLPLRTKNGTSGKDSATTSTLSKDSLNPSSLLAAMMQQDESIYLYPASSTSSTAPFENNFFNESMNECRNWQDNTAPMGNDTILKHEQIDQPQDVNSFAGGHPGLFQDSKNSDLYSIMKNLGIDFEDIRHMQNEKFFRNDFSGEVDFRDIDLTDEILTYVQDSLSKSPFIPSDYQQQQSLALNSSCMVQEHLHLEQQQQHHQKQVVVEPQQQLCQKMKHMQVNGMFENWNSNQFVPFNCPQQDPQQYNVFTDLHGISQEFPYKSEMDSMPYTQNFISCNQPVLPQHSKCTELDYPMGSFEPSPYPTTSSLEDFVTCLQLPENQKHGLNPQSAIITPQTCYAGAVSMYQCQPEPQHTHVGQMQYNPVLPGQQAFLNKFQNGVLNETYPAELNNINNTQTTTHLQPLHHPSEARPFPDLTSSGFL
The note with it: cited from earlier work.

The subject of another assay is Stat3. The assay can be described thus: IL-6-induced phospho-Stat3 in BMDCs, flow cytometry. It counts as cell-based, mouse. Here is the method:
Flow cytometric analysis was performed on BMDCs conditioned with indole from day 3 of culture and subsequently stimulated with IL-6 (10 ng/ml) for the given times. Cells were stained for phospho-Stat3 and analyzed by flow cytometry.
Flow cytometric analysis of BMDCs from WT or AhrKO mice cultured in the presence of indole or DMF from day 3. DCs were stimulated with IL-6 (10 ng/ml) for the given times and stained for phospho-Stat3, which was detected by flow cytometry. Stat3 signaling is shown as percent of phosphorylated cells (FIG. 10A), and MFI of the Stat3 positive population (FIGS. 10B and 10C). The specific Stat3 inhibitor, cucurbitacin I, was included as a negative control. Representative data is shown from one of four independent experiments.
BMDCs were conditioned with indole from day 3 and then induced Stat3 signaling by stimulation with IL-6 (FIGS. 6A and 6B). While Stat3 has both a tyrosine (Y705) and serine (S727) activation site, tyrosine phosphorylation is mediated by Janus kinases and required for Stat3 nuclear localization and subsequent DNA binding. Thus, the […] was queried for this study.
A general note: A flow cytometer gives signals particle by particle.

Another assay relates to naïve CD4+CD25− T cells. The assay can be described thus: DC-T cell co-culture without cell contact (Transwell): Treg induction. It counts as cell-based, mouse. The note with it: exogenous TGF-β added, 3 days.
A further assay relates to Th2 cells. The assay can be described thus: Th2 differentiation in DC-T cell co-culture. The note with it: co-culture with DCs conditioned with indole. It counts as cell-based, mouse. As to the method:
FIGS. 19A-19C graphically illustrate that indole-conditioned DCs inhibit Th1, Th2, and Th17 differentiation. Naïve CD4+CD25-T cells from OT-II TCR transgenic mice were isolated by column purification. Naïve T cells were then co-cultured with OVA323-339 peptide-loaded BMDCs for 72 hours in the presence or absence of lineage-skewing cytokines (described in methods). BMDCs were previously treated with indole, RA, or DMF from day 3. For the last 5 hours of culture, T cells were restimulated with PMA and ionomycin in the presence of Golgiplug, followed by intracellular staining. Cytokine production was determined to assess differentiation of Th1 (FIG. 19A), Th2 (FIG. 19B), and Th17 CD4+T (FIG. 19C) cells. Mean of three independent experiments. * indicates p<0.05 for one-way ANOVA followed by Dunnett's post-test.
In order to determine whether the indole-conditioned DC induction of Tregs was specific to this lineage, additional T cell fates were quieried. Activated CD4+T helper cells are typically divided into the subsets Th1, Th2, Th17, and Treg, based on their expression of transcription factors and pattern of cytokine secretion. The antigen-specific co-culture system was used to investigate these remaining traditional T cell lineages with the addition of an endpoint PMA/Ionomycin stimulation to induce cytokine secretion. […]

Here are results for one molecule from patent US11612586B2, “Indole regulation of antigen presenting cells” (THE TEXAS A&M UNIVERSITY SYSTEM, priority 2016, dated 2023).

Some results are limits rather than exact numbers.

Description for naïve CD4+CD25− T cells: Transwell tissue culture plates were used to perform co-cultures with a physical barrier between the two cell types. Naïve CD4+CD25− T cells were FACS-sorted and placed in the bottom of a 24-well Transwell cell culture plate with 0.4 uM polycarbonate membranes that had been coated with α-CD3 (5 ug/ml) and α-CD28 (2 ug/ml). TGF-β was added at the indicated concentrations. […] The T cell to DC ratio was 2:1, as in other co-culture experiments. After 3 days, T cells were stained for Foxp3 and analyzed by flow cytometry.
Naïve CD4+CD25− T cells were FACS-sorted and placed in the bottom of a 24-well Transwell cell culture plate with 0.4 uM polycarbonate membranes (Corning) that had been coated with 5 μg/mL αCD3 (BioXcell 145-2C11) and 2 μg/mL αCD28 (BioXcell 37.51). TGF-β was added at the indicated concentrations. The insert was placed in the well and washed, Day 3-treated BMDCs were added to the top chamber such that culture media was shared, but the cell types were kept physically separate. The T cell to DC ratio was 2:1, as in other co-culture experiments.

For the molecule `c1ccc2[nH]ccc2c1` [Indole, indole], the “AhR activity in CaC-2 intestinal cells” value at AhR (previous finding of the inventors) is “antagonist”. Further, on AhR (previously reported), the “AhR effect in a liver cancer cell line” value is “antagonistic” and the “AhR effect in yeast” value is given as “agonistic”. The “peak phosphorylation of Stat3 (percentage of DCs)” value with Stat3 (BMDCs, 1 mM indole from day 3, IL-6 10 ng/ml, 15 minutes post-stimulation) is listed as 8%. The “suppression of phospho-Stat3 MFI” value in the assay on Stat3 (BMDCs, indole from day 3, IL-6 stimulation, throughout 60 minute timecourse) is on record as not below 2 fold. Besides, the “inhibition of Stat3 phospho-signaling, WT versus AhR−/−” value in the assay with Stat3 (indole-DCs generated from WT or AhR−/− bone marrow) is “nearly equivalent inhibition”. For the same molecule, the “Treg induction by conditioned DCs without cell contact over solvent controls” value in the assay with naïve CD4+CD25− T cells is on record as “did not enhance Treg skew”. Further, the “development of Th2 lineage” value in the assay on Th2 cells was “stark inhibition”.
